Data from patent US9815841B2, “Compounds” (GLAXOSMITHKLINE INTELLECTUAL PROPERTY DEVELOPMENT LIMITED, priority 2014, dated 2017).

What follows are molecules tested against T1, recombinant full length LRRK2 over-expressed in SH-SY5Y cells (Homo sapiens, UniProt Q5S007) (assay: Recombinant cellular LRRK2 AlphaScreen assay (LRRK2 Ser935 phosphorylation)). Conditions: SH-SY5Y cells with BacMam LRRK2, 60 minutes compound incubation, read-out: recombinant cellcular LRRK2 alphaScreen assay (pIC50) (converted).
T1 construct: A BacMam virus expressing full length recombinant LRRK2 was purchased from Invitrogen; host or cells: SH-SY5Y human neuroblastoma cells transduced with BacMam LRRK2 virus
Assay type: cell-based
Experimental: Recombinant Cellular LRRK2 AlphaScreen Assay
A BacMam virus expressing full length recombinant LRRK2 was purchased from Invitrogen and amplified by inoculation of SF-9 cells at MOI 0.3 for 4-5 days in Sf-900 III SFM medium supplemented with 3% fetal bovine serum. Infected cell cultures were then centrifuged at 2000 g for 20 minutes, viral supernatant titer determined by anti-gp64 plaque assay and stored at 4° C.
Affinity-purified anti-phospho LRRK2 Ser935 sheep polyclonal antibody (Dzamko et al., 2010, Biochem. J. 430: 405-413) was biotinylated by standard methods (PerkinElmer). Anti-LRRK2 rabbit polyclonal antibody was purchased from Novus Biologicals. AlphaScreen Protein A IgG Kit (including acceptor and donor beads) was purchased from Perkin Elmer.
SH-SY5Y cells were grown in DMEM/F12 medium with 10% dialysed fetal bovine serum and harvested by treatment with 0.5% trypsin-EDTA for 5 minutes at […] followed by centrifugation at 1000 rpm for 4 minutes. The cell pellet was resuspended in Opti-MEM reduced serum media (Invitrogen) at 200,000 cells/ml and mixed with the BacMam LRRK2 virus at MOI=50. 50 μl cell solutions were then dispensed to each well of a 384-well plate and incubated at 37° C., 5% CO2 for 24 hours.
Serial dilutions of test compounds were prepared in Opti-MEM reduced serum media (Invitrogen) and 5.6 ul transferred from compound plate to cell assay plate to achieve a top final assay concentration of 10 uM. DMSO was used in certain wells as controls. Cells were incubated at 37° C., 5% CO2 for 60 minutes. The medium was then removed and cells lysed by addition of 20 ul cell lysis buffer (Cell Signaling Technology) and incubation at 4° C. for 20 minutes. 10 ul of antibody/acceptor bead mix [(1/1000 biotinylated-pS935 LRRK2 antibody, 1/1000 total-LRRK2 antibody, 1/100 Acceptor beads in AlphaScreen detection buffer (25 mM Hepes (pH 7.4), 0.5% Triton X-100, 1 mg/ml Dextran 500 and 0.1% BSA)] was then added to each well and plates incubated for 2 hours at ambient temperature in the dark. 10 μl of donor beads solution (1/33.3 donor beads in AlphaScreen detection buffer) was then added to each well. Following incubation for a further 2 hours at ambient temperature in the dark, plates were read on an EnVision™ plate reader at emission 520-620 nm with excitation 680 nm. Dose response curve data was based on sigmoidal dose-response model.

T1 sequence (Q5S007 whole entry): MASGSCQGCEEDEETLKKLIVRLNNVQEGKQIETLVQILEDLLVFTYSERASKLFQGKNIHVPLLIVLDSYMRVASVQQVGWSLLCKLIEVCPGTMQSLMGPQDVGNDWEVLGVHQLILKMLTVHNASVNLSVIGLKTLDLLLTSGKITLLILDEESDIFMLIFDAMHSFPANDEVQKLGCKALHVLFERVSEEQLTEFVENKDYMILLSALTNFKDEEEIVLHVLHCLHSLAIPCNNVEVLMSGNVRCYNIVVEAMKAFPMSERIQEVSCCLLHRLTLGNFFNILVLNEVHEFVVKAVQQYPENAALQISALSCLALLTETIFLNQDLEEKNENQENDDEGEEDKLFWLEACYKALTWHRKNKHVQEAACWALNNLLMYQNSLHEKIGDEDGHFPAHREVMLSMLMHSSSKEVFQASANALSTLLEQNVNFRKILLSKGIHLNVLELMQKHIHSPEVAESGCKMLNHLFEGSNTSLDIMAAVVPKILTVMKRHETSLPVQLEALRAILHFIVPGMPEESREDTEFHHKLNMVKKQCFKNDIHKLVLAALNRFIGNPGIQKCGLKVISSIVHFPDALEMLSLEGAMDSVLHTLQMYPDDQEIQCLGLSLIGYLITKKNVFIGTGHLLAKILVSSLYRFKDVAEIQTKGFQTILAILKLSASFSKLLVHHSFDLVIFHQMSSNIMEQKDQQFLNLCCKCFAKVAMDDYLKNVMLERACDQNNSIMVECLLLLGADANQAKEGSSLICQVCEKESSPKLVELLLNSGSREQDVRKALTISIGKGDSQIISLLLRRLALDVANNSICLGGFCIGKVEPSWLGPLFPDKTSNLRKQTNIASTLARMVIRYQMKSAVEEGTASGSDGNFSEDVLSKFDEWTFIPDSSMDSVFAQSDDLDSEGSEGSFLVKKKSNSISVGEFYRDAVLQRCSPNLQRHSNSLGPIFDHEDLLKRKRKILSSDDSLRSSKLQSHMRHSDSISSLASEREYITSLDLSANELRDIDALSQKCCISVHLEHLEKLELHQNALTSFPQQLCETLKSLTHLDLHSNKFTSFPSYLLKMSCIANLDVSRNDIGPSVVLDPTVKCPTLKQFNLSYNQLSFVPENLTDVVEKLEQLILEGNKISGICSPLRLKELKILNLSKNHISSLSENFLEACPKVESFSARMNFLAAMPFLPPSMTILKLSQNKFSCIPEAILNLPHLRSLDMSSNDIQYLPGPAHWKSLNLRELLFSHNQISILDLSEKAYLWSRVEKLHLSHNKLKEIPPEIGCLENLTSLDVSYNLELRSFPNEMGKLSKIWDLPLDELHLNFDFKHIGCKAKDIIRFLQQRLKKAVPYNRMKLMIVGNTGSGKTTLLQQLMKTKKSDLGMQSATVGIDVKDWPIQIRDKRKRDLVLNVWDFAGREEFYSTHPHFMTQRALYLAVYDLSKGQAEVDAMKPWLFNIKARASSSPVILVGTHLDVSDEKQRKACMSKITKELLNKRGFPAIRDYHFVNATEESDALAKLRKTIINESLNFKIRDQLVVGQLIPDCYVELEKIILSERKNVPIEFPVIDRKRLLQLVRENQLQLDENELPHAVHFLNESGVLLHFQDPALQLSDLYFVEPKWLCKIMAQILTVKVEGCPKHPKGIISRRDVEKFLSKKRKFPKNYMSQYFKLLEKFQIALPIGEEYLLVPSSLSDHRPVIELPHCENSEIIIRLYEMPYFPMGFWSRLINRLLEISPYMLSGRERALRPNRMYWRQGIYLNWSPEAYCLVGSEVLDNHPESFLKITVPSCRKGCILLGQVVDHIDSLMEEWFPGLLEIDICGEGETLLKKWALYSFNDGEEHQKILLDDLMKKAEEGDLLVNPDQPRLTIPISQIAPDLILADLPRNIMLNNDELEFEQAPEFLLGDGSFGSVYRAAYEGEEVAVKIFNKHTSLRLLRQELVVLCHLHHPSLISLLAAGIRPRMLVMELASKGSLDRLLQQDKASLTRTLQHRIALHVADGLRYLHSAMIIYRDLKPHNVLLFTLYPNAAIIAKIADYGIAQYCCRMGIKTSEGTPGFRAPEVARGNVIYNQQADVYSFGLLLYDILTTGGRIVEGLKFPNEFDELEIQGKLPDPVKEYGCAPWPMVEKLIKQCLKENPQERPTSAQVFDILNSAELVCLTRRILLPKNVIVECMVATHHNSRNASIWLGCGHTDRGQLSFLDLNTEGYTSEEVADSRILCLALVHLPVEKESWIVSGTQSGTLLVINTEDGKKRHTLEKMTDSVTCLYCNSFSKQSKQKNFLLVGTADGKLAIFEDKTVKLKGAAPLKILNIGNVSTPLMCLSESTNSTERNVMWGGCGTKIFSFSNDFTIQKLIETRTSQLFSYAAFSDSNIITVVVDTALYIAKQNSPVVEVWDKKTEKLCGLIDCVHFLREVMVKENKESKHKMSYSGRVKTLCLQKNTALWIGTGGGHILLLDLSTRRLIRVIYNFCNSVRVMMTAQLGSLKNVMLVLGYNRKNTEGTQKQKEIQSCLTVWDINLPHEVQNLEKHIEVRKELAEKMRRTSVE

| IC50 [nM] | Structure (SMILES) |
| --- | --- |
| 200 | CCOc1nc(Nc2cc(F)c(C(=O)N3CCOCC3)cc2OC)nc2[nH]ccc12 [Example E2, (4-((4-ethoxy-7H-pyrrolo-[2,3-d]-pyrimidin-2-yl)amino)-2-fluoro-5-methoxyphenyl)(morpholino)methanone] |
| 158 | CCOc1nc(Nc2ccc(C(=O)N3CCN(C)CC3)cc2OC)nc2[nH]ccc12 [Example E3, (4-((4-ethoxy-7H-pyrrolo-[2,3-d]-pyrimidin-2-yl)amino)-3-methoxyphenyl)(4-methylpiperazin-1-yl)-methanone] |
| ≤ 100 | CCOc1nc(Nc2ccc(C(=O)N3CCC(N4CCN(C)CC4)CC3)cc2OC)nc2[nH]ccc12 [Example E4, (4-((4-ethoxy-7H-pyrrolo-[2,3-d]pyrimidin-2-yl)amino)-3-methoxyphenyl)(4-(4-methylpiperazin-1-yl)-piperidin-1-yl)-methanone] |
| ≤ 100 | CCOc1nc(Nc2ccc(C(=O)N3CCOCC3)cc2)nc2[nH]ccc12 [Example E9, (4-((4-ethoxy-7H-pyrrolo-[2,3-d]pyrimidin-2-yl)amino)phenyl)(morpholino)methanone] |
| ≤ 100 | CCOc1nc(Nc2ccc(C(=O)N3CCC4(CC3)CN(C)C4)cc2OC)nc2[nH]ccc12 [Example E13, (4-((4-ethoxy-7H-pyrrolo-[2,3-d]-pyrimidin-2-yl)amino)-3-methoxyphenyl)(2-methyl-2,7-diazaspiro-[3.5]-nonan-7-yl)methanone] |
| 398 | CCOc1nc(Nc2ccc(C(=O)N3CCC4(CC3)CC4)cc2OC)nc2[nH]ccc12 [Example E16, (4-((4-ethoxy-7H-pyrrolo-[2,3-d]-pyrimidin-2-yl)amino)-3-methoxyphenyl)(6-azaspiro-[2.5]octan-6-yl)methanone] |
| 200 | CCOc1cc(C(=O)N2CCOCC2)ccc1Nc1nc(OCC)c2cc[nH]c2n1 [Example E20, (3-ethoxy-4-((4-ethoxy-7H-pyrrolo-[2,3-d]pyrimidin-2-yl)amino)phenyl)(morpholino)methanone] |
| 398 | CCOc1nc(Nc2ccc(C(=O)N3CCN(C)CC3)cc2OC(C)C)nc2[nH]ccc12 [Example E24, (4-((4-ethoxy-7H-pyrrolo-[2,3-d]pyrimidin-2-yl)amino)-3-isopropoxyphenyl)(4-methylpiperazin-1-yl)methanone] |
| ≤ 100 | CCOc1nc(Nc2ccc(C(=O)N3CCOC[C@@H]3C)cc2OC)nc2[nH]ccc12 [Example E27, (S)-(4-((4-ethoxy-7H-pyrrolo-[2,3-d]pyrimidin-2-yl)amino)-3-methoxyphenyl)(3-methylmorpholino)methanone] |
| ≤ 100 | CCOc1nc(Nc2ccc(C(=O)N3CCN(C)CC3)cc2OC)nc2[nH]cc(C)c12 [Example E31, (4-((4-ethoxy-5-methyl-7H-pyrrolo-[2,3-d]pyrimidin-2-yl)amino)-3-methoxyphenyl)(4-methylpiperazin-1-yl)methanone] |
| 50.1 | CCOc1nc(Nc2ccc(C(=O)N3CCN(C)C[C@H]3C)cc2OC)nc2[nH]ccc12 [Example E40, (R)-(2,4-dimethylpiperazin-1-yl)(4-((4-ethoxy-7H-pyrrolo-[2,3-d]-pyrimidin-2-yl)-amino)-3-methoxyphenyl)methanone] |

| Structure (SMILES) | IC50 [nM] |
| --- | --- |
| CCOc1nc(Nc2ccc(C(=O)N3CCOCC3)cc2OC)nc2[nH]ccc12 [Example E1, (4-((4-ethoxy-7H-pyrrolo-[2,3-d]-pyrimidin-2-yl)amino)-3-methoxyphenyl)(morpholino)methanone] | 158 |
